Reference: patent US6737383B1, “Herbicidal oxadiazolidines” (priority 1999, dated 2004)

What was measured:
Settings in all cases: Pre-emergence
rice = assay: Test B flood test rice; assay type: in vivo, Oryza sativa
Procedure, shortened: (§1)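 Each value is a visual injury score relative to controls, with 10 meaning complete control and 0 no effect. Evaluation took place twelve to sixteen days after the 2-leaf-stage plants were treated and kept in the greenhouse.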

smallflower flatsedge = assay: Test B flood test smallflower flatsedge; assay type: in vivo, Cyperus difformis
Procedure, shortened: as §1

duck salad = assay: Test B flood test duck salad; assay type: in vivo, Heteranthera limosa
Procedure, shortened: as §1

bamyardgrass = assay: Test B flood test barnyardgrass; assay type: in vivo, Echinochloa crus-galli
Procedure, shortened: as §1

[1] = Rate 62 g/ha, flood test species, visual evaluation after twelve to sixteen days
[2] = Rate 125 g/ha, flood test species, scale 0 to 10 where 0 is no effect and 10 is complete control
[3] = Rate 250 g/ha, flood-test species, scale 0 to 10, 0 is no effect, 10 is complete control
[4] = Rate 500 g/ha, flood test species, scale 0 to 10 (0 no effect, 10 complete control)

CC(C)N(C(=O)n1oc(=O)n(Cc2cccnc2)c1=O)c1ccc(F)cc1 [Compound 366]
0: Plant response rating, Rice (0 to 10 scale, 0 is no effect, 10 is complete control) (rice; [1]) | Rice plant response rating (rice; [2]) | Rice plant response rating (rice; [3]) | Rice plant response rating (rice; [4]) | Plant response rating, S. Flatsedge (0 to 10 scale, 0 is no effect, 10 is complete control) (smallflower flatsedge; [1]) | S. Flatsedge plant response rating (smallflower flatsedge; [2]) | S. Flatsedge plant response rating (smallflower flatsedge; [3]) | S. Flatsedge plant response rating (smallflower flatsedge; [4]) | Plant response rating, Ducksalad (0 to 10 scale, 0 is no effect, 10 is complete control) (duck salad; [1]) | Ducksalad plant response rating (duck salad; [2]) | Ducksalad plant response rating (duck salad; [3]) | Ducksalad plant response rating (duck salad; [4]) | Plant response rating, Barnyardgrass (0 to 10 scale, 0 is no effect, 10 is complete control) (bamyardgrass; [1]) | Barnyardgrass plant response rating (bamyardgrass; [2]) | Barnyardgrass plant response rating (bamyardgrass; [3]) | Barnyardgrass plant response rating (bamyardgrass; [4])
